According to patent US8658604B2, “Template-fixed beta-hairpin peptidomimetics with protease inhibitory activity” (Polyphor Ltd, priority 2005, dated 2014):
Where a SMILES comes first, the peptide text is derived from it.

Key:
[1] = target: Trypsin, from human pancreas (Homo sapiens, UniProt P07477); assay: Enzymatic assay, trypsin
[2] = target: T1, Elastase from human neutrophils (Homo sapiens, UniProt P08246); assay: Enzymatic assay, elastase
T1 sequence (P08246 30-267): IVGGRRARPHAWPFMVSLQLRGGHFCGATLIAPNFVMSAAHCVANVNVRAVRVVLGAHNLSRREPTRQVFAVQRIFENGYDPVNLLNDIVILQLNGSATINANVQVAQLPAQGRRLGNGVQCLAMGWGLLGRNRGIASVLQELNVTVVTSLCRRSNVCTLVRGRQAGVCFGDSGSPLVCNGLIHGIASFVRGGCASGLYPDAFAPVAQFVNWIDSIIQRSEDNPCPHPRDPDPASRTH

[3] = target: T2, CathepsinG, from human neutrophils (Homo sapiens, UniProt P08311); assay: Enzymatic assay, cathepsin G; conditions: Cathepsin G IC50
T2 sequence (P08311 21-244): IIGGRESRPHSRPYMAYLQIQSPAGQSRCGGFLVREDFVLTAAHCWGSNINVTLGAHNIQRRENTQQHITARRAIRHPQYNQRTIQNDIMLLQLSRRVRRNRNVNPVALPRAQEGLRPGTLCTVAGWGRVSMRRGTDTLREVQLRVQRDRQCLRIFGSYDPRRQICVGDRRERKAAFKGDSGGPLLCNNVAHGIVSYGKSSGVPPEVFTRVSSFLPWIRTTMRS

[4] = test system: Tryptase, from human lung; assay: Enzymatic assay, tryptase; conditions: for IC50: read-out: Tryptase IC50

SMILES	IC50 [3]	IC50 [1]	IC50 [4]	other results
CC[C@H](C)[C@@H]1NC(=O)[C@@H]2CCCN2C(=O)[C@@H]2CCCN2C(=O)[C@H](CC(=O)O)NC(=O)[C@H](CO)NC(=O)[C@H](CCCCN)NC(=O)[C@H]([C@@H](C)O)NC(=O)[C@@H]2CSSC[C@H](NC1=O)C(=O)N[C@@H](CO)C(=O)N1CCC[C@@H]1C(=O)N1CCC[C@H]1C(=O)N[C@@H](Cc1ccc(N)cc1)C(=O)N2 [Ex. 9] (HELM PEPTIDE1{[Nc1ccc(C[C@H](N[*:1])C(=O)[*:2])cc1].C.T.K.S.D.P.P.I.C.S.[dP].P}$PEPTIDE1,PEPTIDE1,2:R3-10:R3|PEPTIDE1,PEPTIDE1,1:R1-13:R2$$$V2.0)	0.105 µM	–	–	Trypsin at 100 μM % [1]: 88.1%; Elastase at 100 μM % ([2]; at 100 μM (stated in cell instead of IC50)): 4.1 at %
CC[C@H](C)[C@@H]1NC(=O)[C@@H]2CCCN2C(=O)[C@@H]2CCCN2C(=O)[C@H](CC(=O)O)NC(=O)[C@H](CO)NC(=O)[C@H](CCCCN)NC(=O)[C@H]([C@@H](C)O)NC(=O)[C@@H]2CSSC[C@H](NC1=O)C(=O)N[C@@H](CO)C(=O)N[C@H](CC(=O)O)C(=O)N1CCC[C@H]1C(=O)N[C@@H](Cc1ccccc1)C(=O)N2 [Ex. 46] (HELM PEPTIDE1{F.C.T.K.S.D.P.P.I.C.S.[dD].P}$PEPTIDE1,PEPTIDE1,2:R3-10:R3|PEPTIDE1,PEPTIDE1,1:R1-13:R2$$$V2.0)	–	–	–	Tryptase at 100 μM % ([4]; at 100 μM): 44.1%
CC[C@H](C)[C@@H]1NC(=O)[C@@H]2CCCN2C(=O)[C@@H]2CCCN2C(=O)[C@H](CC(=O)O)NC(=O)[C@H](CO)NC(=O)[C@H](CCCCN)NC(=O)[C@H]([C@@H](C)O)NC(=O)[C@@H]2CSSC[C@H](NC1=O)C(=O)N[C@@H](CO)C(=O)N1CCC[C@@H]1C(=O)N[C@@H](CC(C)C)C(=O)N[C@@H](Cc1ccccc1)C(=O)N2 [Ex. 51] (HELM PEPTIDE1{C.S.[dP].L.F.C.T.K.S.D.P.P.I}$PEPTIDE1,PEPTIDE1,1:R3-6:R3|PEPTIDE1,PEPTIDE1,1:R1-13:R2$$$V2.0)	0.091 µM	–	–	IC50 ([2]; Elastase IC50): > 100 µM
CC[C@H](C)[C@@H]1NC(=O)[C@@H]2CCCN2C(=O)[C@@H]2CCCN2C(=O)[C@H](CC(=O)O)NC(=O)[C@H](CO)NC(=O)[C@H](CCCCN)NC(=O)[C@H]([C@@H](C)O)NC(=O)[C@@H]2CSSC[C@H](NC1=O)C(=O)N[C@@H](CO)C(=O)N[C@H](CC(N)=O)C(=O)N1CCC[C@H]1C(=O)N[C@@H](Cc1ccccc1)C(=O)N2 [Ex. 69] (HELM PEPTIDE1{C.S.[dN].P.F.C.T.K.S.D.P.P.I}$PEPTIDE1,PEPTIDE1,1:R3-6:R3|PEPTIDE1,PEPTIDE1,1:R1-13:R2$$$V2.0)	0.068 µM	–	–	–
C[C@@H](O)[C@@H]1NC(=O)[C@@H]2CSSC[C@H](NC(=O)[C@H](CC3CCCCC3)NC(=O)[C@@H]3CCCN3C(=O)[C@@H]3CCCN3C(=O)[C@H](CC(=O)O)NC(=O)[C@H](CO)NC(=O)[C@H](CCCCN)NC1=O)C(=O)N[C@@H](CC(N)=O)C(=O)N1CCC[C@@H]1C(=O)N1CCC[C@H]1C(=O)N[C@@H](Cc1ccc(N)cc1)C(=O)N2 [Ex. 70] (HELM PEPTIDE1{[Nc1ccc(C[C@H](N[*:1])C(=O)[*:2])cc1].C.T.K.S.D.P.P.[Cha].C.N.[dP].P}$PEPTIDE1,PEPTIDE1,2:R3-10:R3|PEPTIDE1,PEPTIDE1,1:R1-13:R2$$$V2.0)	0.069 µM	–	–	–
C[C@@H](O)[C@@H]1NC(=O)[C@@H]2CSSC[C@H](NC(=O)[C@H](CC3CCCCC3)NC(=O)[C@@H]3CCCN3C(=O)[C@@H]3CCCN3C(=O)[C@H](CC(=O)O)NC(=O)[C@H](CO)NC(=O)[C@H](CCCCN)NC1=O)C(=O)N[C@@H](CCCNC(=N)N)C(=O)N1CCC[C@@H]1C(=O)N1CCC[C@H]1C(=O)N[C@@H](C1CCCCC1)C(=O)N2 [Ex. 71] (HELM PEPTIDE1{[O=C([C@@H](N[*:1])C1CCCCC1)[*:2]].C.T.K.S.D.P.P.[Cha].C.R.[dP].P}$PEPTIDE1,PEPTIDE1,2:R3-10:R3|PEPTIDE1,PEPTIDE1,1:R1-13:R2$$$V2.0)	0.07 µM	–	–	–
CC[C@H](C)[C@@H]1NC(=O)[C@@H]2CCCN2C(=O)[C@@H]2CCCN2C(=O)[C@H](CC(=O)O)NC(=O)[C@H](CO)NC(=O)[C@H](CCCCN)NC(=O)[C@H]([C@@H](C)O)NC(=O)[C@@H]2CSSC[C@H](NC1=O)C(=O)N[C@@H](CO)C(=O)N[C@H]([C@H](C)O)C(=O)N1CCC[C@H]1C(=O)N[C@@H](Cc1ccccc1)C(=O)N2 [Ex. 72] (HELM PEPTIDE1{C.S.[dT].P.F.C.T.K.S.D.P.P.I}$PEPTIDE1,PEPTIDE1,1:R3-6:R3|PEPTIDE1,PEPTIDE1,1:R1-13:R2$$$V2.0)	0.087 µM	–	–	–
CC[C@H](C)[C@@H]1NC(=O)[C@@H]2CCCN2C(=O)[C@@H]2CCCN2C(=O)[C@H](CC(=O)O)NC(=O)[C@H](CO)NC(=O)[C@H](CCCCN)NC(=O)[C@H]([C@@H](C)O)NC(=O)[C@@H]2CSSC[C@H](NC1=O)C(=O)N[C@@H](CO)C(=O)N1CCC[C@@H]1C(=O)N[C@@H](CC(C)C)C(=O)N[C@@H](Cc1ccccc1)C(=O)N2 [Ex. 74] (HELM PEPTIDE1{C.S.[dP].L.F.C.T.K.S.D.P.P.I}$PEPTIDE1,PEPTIDE1,1:R3-6:R3|PEPTIDE1,PEPTIDE1,1:R1-13:R2$$$V2.0)	–	–	–	Trypsin at 100 μM % [1]: 86%
CC[C@H](C)[C@@H]1NC(=O)[C@@H]2CCCN2C(=O)[C@H]2CCCN2C(=O)[C@H](CCCNC(=N)N)NC(=O)[C@@H]2CSSC[C@H](NC1=O)C(=O)N[C@@H]([C@@H](C)O)C(=O)N[C@@H](CCCCN)C(=O)N[C@@H](CO)C(=O)N[C@@H](CC(C)C)C(=O)N1CCC[C@H]1C(=O)N1CCC[C@H]1C(=O)N[C@@H]([C@@H](C)CC)C(=O)N2 [Ex. 180] (HELM PEPTIDE1{I.C.T.K.S.L.P.P.I.C.R.[dP].P}$PEPTIDE1,PEPTIDE1,2:R3-10:R3|PEPTIDE1,PEPTIDE1,1:R1-13:R2$$$V2.0)	0.12 µM	0.06 µM	< 0.1 µM	–
CC[C@H](C)[C@@H]1NC(=O)[C@@H]2CCCN2C(=O)[C@H]2CCCN2C(=O)[C@H](CCCNC(=N)N)NC(=O)[C@@H]2CSSC[C@H](NC1=O)C(=O)N[C@@H]([C@@H](C)O)C(=O)N[C@@H](CCCCN)C(=O)N[C@@H](CO)C(=O)N[C@@H](CCc1ccccc1)C(=O)N1CCC[C@H]1C(=O)N1CCC[C@H]1C(=O)N[C@@H]([C@@H](C)CC)C(=O)N2 [Ex. 181] (HELM PEPTIDE1{I.C.T.K.S.[O=C([C@H](CCc1ccccc1)N[*:1])[*:2]].P.P.I.C.R.[dP].P}$PEPTIDE1,PEPTIDE1,2:R3-10:R3|PEPTIDE1,PEPTIDE1,1:R1-13:R2$$$V2.0)	0.127 µM	0.113 µM	0.04 µM	–
CC[C@H](C)[C@@H]1NC(=O)[C@@H]2CCCN2C(=O)[C@H]2CCCN2C(=O)[C@H](CCCNC(=N)N)NC(=O)[C@@H]2CSSC[C@H](NC1=O)C(=O)N[C@@H]([C@@H](C)O)C(=O)N[C@@H](CCCCN)C(=O)N[C@@H](CO)C(=O)N[C@@H](CC1CCCCC1)C(=O)N1CCC[C@H]1C(=O)N1CCC[C@H]1C(=O)N[C@@H]([C@@H](C)CC)C(=O)N2 [Ex. 182] (HELM PEPTIDE1{I.C.T.K.S.[Cha].P.P.I.C.R.[dP].P}$PEPTIDE1,PEPTIDE1,2:R3-10:R3|PEPTIDE1,PEPTIDE1,1:R1-13:R2$$$V2.0)	0.111 µM	0.059 µM	0.039 µM	–
CC[C@H](C)[C@@H]1NC(=O)[C@@H]2CCCN2C(=O)[C@H]2CCCN2C(=O)[C@H](CCCNC(=N)N)NC(=O)[C@@H]2CSSC[C@H](NC1=O)C(=O)N[C@@H]([C@@H](C)O)C(=O)N[C@@H](CCCCN)C(=O)N[C@@H](CO)C(=O)N[C@@H](Cc1ccc(O)cc1)C(=O)N1CCC[C@H]1C(=O)N1CCC[C@H]1C(=O)N[C@@H]([C@@H](C)CC)C(=O)N2 [Ex. 183] (HELM PEPTIDE1{I.C.T.K.S.Y.P.P.I.C.R.[dP].P}$PEPTIDE1,PEPTIDE1,2:R3-10:R3|PEPTIDE1,PEPTIDE1,1:R1-13:R2$$$V2.0)	0.243 µM	0.146 µM	0.025 µM	–
CC[C@H](C)[C@@H]1NC(=O)[C@@H]2CCCN2C(=O)[C@@H]2CCCN2C(=O)[C@H](CC(C)C)NC(=O)[C@H](CO)NC(=O)[C@H](CCCCN)NC(=O)[C@H]([C@@H](C)O)NC(=O)[C@@H]2CSSC[C@H](NC1=O)C(=O)N[C@@H](CCCNC(=N)N)C(=O)N1CCC[C@@H]1C(=O)N1CCC[C@H]1C(=O)N[C@@H](Cc1ccccc1)C(=O)N2 [Ex. 184] (HELM PEPTIDE1{F.C.T.K.S.L.P.P.I.C.R.[dP].P}$PEPTIDE1,PEPTIDE1,2:R3-10:R3|PEPTIDE1,PEPTIDE1,1:R1-13:R2$$$V2.0)	0.221 µM	0.048 µM	0.027 µM	–
CC[C@H](C)[C@@H]1NC(=O)[C@@H]2CCCN2C(=O)[C@H]2CCCN2C(=O)[C@H](CCCNC(=N)N)NC(=O)[C@@H]2CSSC[C@H](NC1=O)C(=O)N[C@@H]([C@@H](C)O)C(=O)N[C@@H](CCCCN)C(=O)N[C@@H](CO)C(=O)N[C@@H](CC(C)C)C(=O)N1CCC[C@H]1C(=O)N1CCC[C@H]1C(=O)N[C@@H](CCCNC(=N)N)C(=O)N2 [Ex. 185] (HELM PEPTIDE1{I.C.T.K.S.L.P.P.R.C.R.[dP].P}$PEPTIDE1,PEPTIDE1,2:R3-10:R3|PEPTIDE1,PEPTIDE1,1:R1-13:R2$$$V2.0)	0.514 µM	0.126 µM	0.014 µM	–
CC[C@H](C)[C@@H]1NC(=O)[C@@H]2CCCN2C(=O)[C@H]2CCCN2C(=O)[C@H](CCCNC(=N)N)NC(=O)[C@@H]2CSSC[C@H](NC1=O)C(=O)N[C@@H]([C@@H](C)O)C(=O)N[C@@H](CCCCN)C(=O)N[C@@H](CO)C(=O)N[C@@H](CC(C)C)C(=O)N1CCC[C@H]1C(=O)N1CCC[C@H]1C(=O)N[C@@H](CCCCN)C(=O)N2 [Ex. 186] (HELM PEPTIDE1{I.C.T.K.S.L.P.P.K.C.R.[dP].P}$PEPTIDE1,PEPTIDE1,2:R3-10:R3|PEPTIDE1,PEPTIDE1,1:R1-13:R2$$$V2.0)	0.337 µM	0.099 µM	0.015 µM	–
